We go through 13 compounds from patent EP4722213A1, “NITROGEN-CONTAINING FUNCTIONAL GROUP-SUBSTITUTED PYRIDAZINOPYRIDONE DERIVATIVE AND USE THEREOF” (Sichuan Huiyu Pharmaceutical Co., Ltd., priority 2023, dated 2024).

Data set [1] is described as follows: Rat liver microsomal metabolic stability. Format: in vitro ADME. The following applies: rat liver microsomes; for half-life at 1 µM: NADPH, 37°C; for CLint scaled at 1 µM: calculated from T1/2, fu defaulted to 1, read-out: CL(liver). An excerpt: Metabolic stability affects the clearance rate, half-life, and oral bioavailability of compounds in the body, and is one of the most important ADME drug-like properties of compounds. Hepatocyte microsomal stability assay is a commonly used method for studying metabolic stability. In the present disclosure, rat liver microsomes are used to determine and investigate the metabolic stability of compounds.
Preparation of compound stock solution: an appropriate amount of the test compound and testosterone was taken, and a 1 mM stock solution was prepared with DMSO, which was stored in a refrigerator at 4°C.
Preparation of compound working solution: The 1 mM compound stock solution was taken respectively, and then diluted to 100 µM with acetonitrile-water (v:v = 1:1) to obtain the working solution.
Preparation of NADPH working solution: an appropriate amount of NADPH was weighed and dissolved in 16 mM MgCl2 to prepare a NADPH working solution with a concentration of 4.0 mM.
Preparation of rat liver microsome working solution: an appropriate amount of rat liver microsomes was taken and diluted with PBS to obtain a liver microsome working solution with a concentration of 1 mg/mL.
In the incubation system, 48 µL of PBS, 100 µL of rat liver microsome working solution, and 2 µL of the test compound working solution were sequentially added and mixed well. After pre-incubation at 37°C for 5 min, 50 µL of NADPH was added to initiate the reaction. After incubation for the corresponding time points, an appropriate amount of ice-cold acetonitrile containing an internal standard was added to terminate the reaction. The mixture was vortexed to mix well, centrifuged, and the supernatant was collected. The supernatant was injected into LC-MS/MS for detection of the residual metabolic amount of the compound.
Softwares of Excel, etc. were used for data processing according to the following formula. Ct = C0 •e^(−ke •t) [formula] when Ct = (1)/(2)C0 [formula] , T1/2 = (Ln2)/(ke) = (0.693)/(ke) [formula] CLint(mic) = (0.693)/(In vitro T1/2)•(1)/(mg/mL microsomal protein in reaction system) [formula] CLint(liver) = CLint(mic) •(mg microsomes)/(g liver)•(g liver)/(kg body weight) [formula] CL(liver) = (CLint(liver)×fu×Qh)/(CLint(liver)×fu+Qh) [formula] fu (unbound fraction in blood) was defaulted to be 1.

A further data set has as its target T1, SOS1 (Homo sapiens, UniProt Q07889).
T1 sequence (Q07889 1-1333): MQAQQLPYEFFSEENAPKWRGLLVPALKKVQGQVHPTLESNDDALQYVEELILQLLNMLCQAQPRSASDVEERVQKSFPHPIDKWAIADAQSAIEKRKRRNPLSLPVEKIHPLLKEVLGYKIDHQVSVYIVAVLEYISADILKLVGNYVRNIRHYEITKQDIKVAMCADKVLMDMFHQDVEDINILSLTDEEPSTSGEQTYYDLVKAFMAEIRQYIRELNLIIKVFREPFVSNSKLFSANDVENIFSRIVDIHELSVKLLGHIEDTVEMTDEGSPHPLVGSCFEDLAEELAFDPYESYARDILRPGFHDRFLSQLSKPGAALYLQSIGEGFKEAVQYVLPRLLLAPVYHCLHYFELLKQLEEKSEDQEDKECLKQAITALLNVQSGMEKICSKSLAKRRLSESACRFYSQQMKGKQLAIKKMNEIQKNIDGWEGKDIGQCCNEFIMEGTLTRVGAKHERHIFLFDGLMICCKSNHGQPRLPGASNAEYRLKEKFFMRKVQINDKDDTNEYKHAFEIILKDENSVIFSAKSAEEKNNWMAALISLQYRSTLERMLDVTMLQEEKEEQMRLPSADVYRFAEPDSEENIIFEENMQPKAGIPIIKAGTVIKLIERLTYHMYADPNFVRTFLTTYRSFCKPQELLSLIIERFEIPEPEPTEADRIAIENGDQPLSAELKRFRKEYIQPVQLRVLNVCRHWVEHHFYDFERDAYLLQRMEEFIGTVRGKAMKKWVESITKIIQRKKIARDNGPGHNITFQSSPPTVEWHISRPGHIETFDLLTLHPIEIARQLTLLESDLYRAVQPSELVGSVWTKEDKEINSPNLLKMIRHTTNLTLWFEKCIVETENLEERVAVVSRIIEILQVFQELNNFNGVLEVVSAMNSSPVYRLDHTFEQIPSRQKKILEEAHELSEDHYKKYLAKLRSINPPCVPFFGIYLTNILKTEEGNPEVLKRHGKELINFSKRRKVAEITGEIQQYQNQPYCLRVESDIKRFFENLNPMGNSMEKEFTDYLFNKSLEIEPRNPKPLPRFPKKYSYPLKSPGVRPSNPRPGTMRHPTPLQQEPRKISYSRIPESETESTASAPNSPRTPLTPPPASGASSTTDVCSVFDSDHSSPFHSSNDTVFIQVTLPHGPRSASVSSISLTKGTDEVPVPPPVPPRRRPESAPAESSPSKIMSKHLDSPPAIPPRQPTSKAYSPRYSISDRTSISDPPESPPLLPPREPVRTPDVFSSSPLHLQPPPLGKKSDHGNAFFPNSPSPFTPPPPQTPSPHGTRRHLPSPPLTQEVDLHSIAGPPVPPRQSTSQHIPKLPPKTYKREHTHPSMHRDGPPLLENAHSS
The experiment in a line: biochemical.

Data set [2] relates to NCI-H358 non-small cell lung cancer cells. The experiment in a line: Inhibition of NCI-H358 cell proliferation (CellTiter-Glo 3D, 7 days). Format: cell-based. The following applies: Homo sapiens, NCI-H358, 168 h, 3D microspheres, read-out: Inhibitory activity against NCI-H358 cell proliferation (IC50). Here is the method: The number of viable cells were detected by CellTiter-Glo 3D® reagent, thereby evaluating the inhibitory effect of compounds on cell proliferation. NCI-H358 non-small cell lung cancer cells (Nanjing cobioer) in the exponential growth phase were digested with trypsin-EDTA, and seeded into 96-well ultra-low attachment microplates at 100 µL per well with a density of 2000 cells/well. The cells were cultured overnight at 37°C with 5% CO2 to form microspheres. The test compounds were serially diluted 5-fold with DMSO to obtain 8 concentration gradient dilutions, then diluted with RPMI-1640 (10% FBS) cell culture medium respectively to obtain compound working solutions (2×). 100 µL per well was added to the cell supernatant, and the culture was continued for 7 days under the conditions of 37°C and 5% CO2. The well plate was removed, and 100 µL of CellTiter-Glo 3D® reagent was added. After lysis at room temperature for 10-30 minutes, 70 µL of the lysate was aspirated and transferred to a white opaque 384-well plate.
The inhibition rate was calculated by the following formula: [formula] Note: The negative control refers to the group without inhibitor, and the blank refers to the group without cells.
The inhibitory activities of some Example compounds and comparative compounds against NCI-H358 cell proliferation are shown in Table 2. Table 2. Inhibitory activity of some Example compounds against NCI-H358 cell proliferation

Counter-ions that a name gives are not always drawn.

Consider `CC(C)C1CCN(c2nnc(N[C@H](C)c3cccc(C(F)F)c3F)c3cn(C4(C)CC4)c(=O)cc23)CC1` [Example 121, (R)-4-((1-(3-(difluoromethyl)-2-fluorophenyl)ethyl)amino)-1-(4-isopropylpiperidin-1-yl)-6-(1-methylcyclopropyl) pyrido[3,4-d]pyridazin-7(6H)-one], for which, in data set [1], the half-life at 1 µM is more than 5 h and the CLint scaled at 1 µM is less than 7.23 mL/min/kg. This compound had an IC50 against SOS1 of 5.5 nM.

As for `Cc1nnc(N[C@H](C)c2cccc(C(F)(F)F)c2)c2cn(C3(C)CC3)c(=O)cc12` [comparative compound2, (R)-1-methyl-6-(1-methylcyclopropyl)-4-((1-(3-(trifluoromethyl)phenyl)ethyl)amino)pyrido[3,4-d]pyridazin-7(6H)-one hydrochloride, reference compound], the IC50 in data set [2] came out at 377 nM.

With `C[C@@H](Nc1nnc(N2CCC2)c2cc(=O)n(C3CC3)cc12)c1cccc(C(F)F)c1F` [Example 15, (R)-1-(azetidin-1-yl)-6-cyclopropyl-4-((1-(3-(difluoromethyl)-2-fluorophenyl)ethyl)amino)pyrido[3,4-d]pyridazin-7(6H)-one], in data set [1], the half-life at 1 µM is 0.787 h and the CLint scaled at 1 µM was 27 mL/min/kg. In addition, the IC50 on SOS1 is 5.5 nM.

On to `Cc1c([C@@H](C)Nc2nnc(N3CCC3)c3cc(=O)n(C4CC4)cc23)cccc1C(F)(F)F.O=CO` [Example 50, (R)-1-(azetidin-1-yl)-6-cyclopropyl-4-((1-(2-methyl-3-(trifluoromethyl)phenyl)ethyl)amino)pyr ido[3,4-d]pyridazin-7(6H)-one formate], for which, in data set [1], the half-life at 1 µM was 2.18 h and the CLint scaled at 1 µM is 14.2 mL/min/kg. The same compound displayed an IC50 on SOS1 of 5.8 nM.

Take `C[C@@H](Nc1nnc(N2CCNCC2)c2cc(=O)n(C3(C)CC3)cc12)c1cccc(C(F)F)c1F` [Example 78, (R)-4-((1-(3-(difluoromethyl)-2-fluorophenyl)ethyl)amino)-6-(1-methylcyclopropyl)-1-(piperazin-1-yl)pyrido[3,4-d]pyridazin-7(6H)-one]: in data set [1], the half-life at 1 µM was 4.22 h and the CLint scaled at 1 µM was 8.4 mL/min/kg. The compound further yielded an IC50 against SOS1 of 4.6 nM.

As to `CNc1nnc(N[C@H](C)c2cccc(C#N)c2C)c2cn(C3CC3)c(=O)cc12` [Example 38, (R)-3-(1-((6-cyclopropyl-1-(methylamino)-7-oxo-6,7-dihydropyrido[3,4-d]pyridazin-4-yl)amino)ethyl)-2-methylbenzonitrile], in data set [1], the half-life at 1 µM is 3.55 h and the CLint scaled at 1 µM is 9.7 mL/min/kg. This compound displayed an IC50 at SOS1 of 5 nM.

As for `Cc1c([C@@H](C)Nc2nnc(C)c3cc(=O)n(C4(C)CC4)cc23)cccc1C(F)(F)F` [comparative compound 1, (R)-1-methyl-4-((1-(2-methyl-3-(trifluoromethyl)phenyl)ethyl)amino)-6-(1-methylcyclopropyl) pyrido[3,4-d]pyridazin-7(6H)-one, reference compound], the IC50 in data set [2] was determined as 282 nM.

Turning to `C[C@@H](Nc1nnc(NC2CC2)c2cc(=O)n(C3(C)CC3)cc12)c1cccc(C(F)F)c1F` [Example 10, (R)-1-(cyclopropylamino) -4-((1-(3-(difluoromethyl)-2-fluorophenyl)ethyl)amino)-6-(1-methylcyclopropyl) pyrido[3,4-d]pyridazin-7(6H)-one], in data set [1], the half-life at 1 µM was 0.483 h and the CLint scaled at 1 µM is 33.6 mL/min/kg. The same compound gave an IC50 against SOS1 of 5.8 nM.

In the case of `C[C@@H](Nc1nnc(NC2(C)CC2)c2cc(=O)n(C3(C)CC3)cc12)c1cccc(C(F)F)c1F` [Example 11, (R)-4-((1-(3-(difluoromethyl)-2-fluorophenyl)ethyl)amino)-6-(1-methylcyclopropyl)-1-((1-methylcyclopropyl)amino)pyrido[3,4-d]pyridazin-7(6H)-one], in data set [1], the half-life at 1 µM is 0.855 h and the CLint scaled at 1 µM was 25.8 mL/min/kg. Further, the IC50 on SOS1 stood at 1.4 nM.

Consider `C[C@@H](Nc1nnc(N2CC(CO)C2)c2cc(=O)n(C3(C)CC3)cc12)c1cccc(C(F)(F)F)c1` [Example 177, (R)-1-(3-(hydroxymethyl)azetidin-1-yl)-6-(1-methylcyclopropyl)-4-((1-(3-(trifluoromethyl)phenyl)ethyl)amino)pyr ido[3,4-d]pyridazin-7(6H)-one formate], for which, at SOS1, the IC50 was 6.2 nM.

`Cc1cc(N)cc([C@@H](C)Nc2nnc(N3CCN(C4CC4)CC3)c3cc(=O)n(C4CC4)cc23)c1F` [Example 143, (R)-4-((1-(5-amino-2-fluoro-3-methylphenyl)ethyl)amino)-6-cyclopropyl-1-(4-cyclopropylpiperazin-1-yl)pyrido[3,4-d]pyridazin-7(6H)-one]: the IC50 against SOS1 worked out at 11.5 nM.

For `Cc1c(C#N)cccc1[C@@H](C)Nc1nnc(N2CCN(C(C)C)CC2)c2cc(=O)n(C3CC3)cc12` [Example 215, (R)-3-(1-((6-cyclopropyl-1-(4-isopropylpiperazin-1-yl)-7-oxo-6,7-dihydropyrido[3,4-d]pyridazin-4-yl)amino)ethyl)-2-methylbenzonitrile], the IC50 on SOS1 stood at 8.6 nM.

Take `Cc1c(C#N)cccc1[C@@H](C)Nc1nnc(N2CCC2)c2cc(=O)n(C3CC3)cc12` [Example 36, (R)-3-(1-((1-(azetidin-1-yl)-6-cyclopropyl-7-oxo-6,7-dihydropyrido[3,4-d]pyridazin-4-yl)amino)ethyl)-2-methylbenzonitrile]: the IC50 against SOS1 stood at 10.7 nM.
